Measurements published in publication PMC10787790, “Isatin-tethered halogen-containing acylhydrazone derivatives as monoamine oxidase inhibitor with neuroprotective effect” (Scientific Reports, 2024).

Experiments:
[1] = Parallel artificial membrane permeability assay (PAMPA), BBB; format: in vitro ADME
Experimental: The blood–brain barrier (BBB) permeation abilities of the four lead molecules were analyzed using the PAMPA method[44],[45]. The detailed procedure is explained in the Supplementary Data.
Using a microtiter plate with 96 wells and a Millipore filter plate with 96 wells (ipvh, 125 μm thick filter, 0.45 μm pore), which was then saturated with 0.1 mL of n-dodecane, a "sandwich" structure was created in PAMPA. Stock solutions of drug samples in DMSO were created at a 10 mM concentration. The stock solution was diluted in buffer at pH 7.4 before being added to a 96-well filter plate in order to achieve a final sample concentration (0.01, 0.1, and 1 mM) and keep the DMSO concentration at 1% (v/v). The final dilutions were divided into 270 μL for the donor wells and 200 μL of pH 7.4 buffer for the acceptor well. The donor plate was placed on the top of the acceptor filter plate to form a sandwich (comprising of a synthetic lipid membrane in the center, an aqueous receiver on […], and an aqueous donor carrying an analyte on the bottom.). The test substance diffuses from the donor well across the lipid membrane and into the acceptor well. The sandwich is said to have been intact when the penetration occurred. The drug concentration in the reference, donor, and receiver wells was measured using UV spectroscopy. The rate of penetration is calculated using the following expression.
Log Pe = -ln [1-CA /Equilibrium]/A× (1/VD + 1/VA) × t

[2] = target: T1, MAO-A (Homo sapiens, UniProt P21397); test: MAO-A inhibition assay (continuous, kynuramine); details: for remaining activity at 10 µM: read-out: Residual activity at 10 µM (%) MAO-A
T1 sequence (P21397 1-527): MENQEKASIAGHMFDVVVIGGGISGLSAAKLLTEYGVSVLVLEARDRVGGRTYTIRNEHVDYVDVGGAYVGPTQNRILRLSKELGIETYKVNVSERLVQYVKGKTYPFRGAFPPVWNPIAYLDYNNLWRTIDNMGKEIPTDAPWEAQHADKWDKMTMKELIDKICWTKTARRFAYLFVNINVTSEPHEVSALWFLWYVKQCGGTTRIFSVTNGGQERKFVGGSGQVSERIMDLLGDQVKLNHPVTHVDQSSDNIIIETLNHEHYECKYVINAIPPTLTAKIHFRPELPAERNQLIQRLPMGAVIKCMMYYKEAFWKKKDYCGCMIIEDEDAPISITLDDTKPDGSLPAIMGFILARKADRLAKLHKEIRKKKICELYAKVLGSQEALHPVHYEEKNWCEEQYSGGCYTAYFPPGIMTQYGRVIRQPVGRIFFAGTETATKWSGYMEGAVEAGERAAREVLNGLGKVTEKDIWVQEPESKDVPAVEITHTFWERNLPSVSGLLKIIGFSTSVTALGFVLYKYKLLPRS
Experimental: (§1) MAO-A and MAO-B activities were determined using 0.06 mM kynuramine and 0.3 mM benzylamine, respectively[39]. […] Concentrations of the substrates used were around 2.0 times of their Km values for the enzyme assay. The absorbance was measured using the continuous assay method described previously[40].
(§2) The selectivity index (SI) values of the compounds were calculated as follows: (IC50 of MAO-A)/(IC50 of MAO-B)[42].

[3] = target: T2, MAO-B (Homo sapiens, UniProt P27338); test: MAO-B inhibition assay (continuous, benzylamine); details: for remaining activity at 10 µM: read-out: Residual activity at 10 µM (%) MAO-B; for SI (selectivity index): (IC50 of MAO-A)/(IC50 of MAO-B), MAO-B compared to MAO-A
T2 sequence (P27338 1-520): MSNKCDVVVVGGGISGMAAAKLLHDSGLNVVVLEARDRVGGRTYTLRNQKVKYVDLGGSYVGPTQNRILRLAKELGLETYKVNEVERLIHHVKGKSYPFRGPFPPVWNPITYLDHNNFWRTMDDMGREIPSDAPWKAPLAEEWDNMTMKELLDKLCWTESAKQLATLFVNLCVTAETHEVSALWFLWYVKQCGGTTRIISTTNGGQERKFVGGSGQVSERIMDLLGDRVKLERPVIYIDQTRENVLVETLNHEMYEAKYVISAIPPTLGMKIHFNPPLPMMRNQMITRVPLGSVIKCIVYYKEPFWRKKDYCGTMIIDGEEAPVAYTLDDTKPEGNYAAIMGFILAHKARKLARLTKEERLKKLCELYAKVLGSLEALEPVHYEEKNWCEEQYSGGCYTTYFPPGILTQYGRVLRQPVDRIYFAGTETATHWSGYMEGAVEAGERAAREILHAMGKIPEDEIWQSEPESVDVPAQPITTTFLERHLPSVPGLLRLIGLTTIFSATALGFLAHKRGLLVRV
Experimental: as §1, §2

## C#CCN(C)[C@H](C)Cc1ccccc1 [Selegiline, reference compound]
[1]
  Prediction (CNS permeation class): CNS+ (Pe (10^−6 cm/s) > 4.00: CNS + (high permeation))

## O=C1Nc2ccccc2/C1=N/NC(=O)c1ccc(F)cc1 [IS8]
[2]
  IC50: 35 µM
  remaining activity at 10 µM: 69.7 ± 3.22%
[3]
  IC50: 25.5 ± 2.03 µM
  remaining activity at 10 µM: 67.4 ± 7.8%

## O=C1Nc2ccc(Br)cc2/C1=N/NC(=O)c1ccc(Br)cc1 [IS3]
[2]
  IC50: 2.385 ± 0.018 µM
  remaining activity at 10 µM: 29.5 ± 0.34%
[3]
  IC50: 0.514 ± 0.023 µM
  SI (selectivity index): 4.64
  remaining activity at 10 µM: 1.04 ± 0.23%

## O=C1Nc2ccc(F)cc2/C1=N/NC(=O)c1ccc(Cl)cc1 [IS10]
[2]
  IC50: 18.3 ± 0.729 µM
  remaining activity at 10 µM: 54.1 ± 0.78%
[3]
  IC50: 3.99 ± 0.472 µM
  SI (selectivity index): 4.58
  remaining activity at 10 µM: 42.6 ± 0.82%

## O=C1Nc2ccc(Cl)cc2/C1=N/NC(=O)c1ccccc1 [IS13]
[1]
  CNS/BBB permeability in words: high permeability and CNS bioavailability
  Prediction (CNS permeation class): CNS+ (Pe (10^−6 cm/s) > 4.00: CNS + (high permeation))
[1]; pH 7.4
  Experimental Pe: > 4 ×10⁻⁶ cm/s
[1]; pH 7.4, read-out: Experimental Pe
  Papp: 4.66 ± 0.18 ×10⁻⁶ cm/s

## O=C1Nc2ccc(F)cc2/C1=N/NC(=O)c1ccc(Br)cc1 [IS11]
[2]
  IC50: 13.7 ± 0.396 µM
  remaining activity at 10 µM: 43.56 ± 0.42%
[3]
  IC50: 10.6 ± 0.256 µM
  SI (selectivity index): 1.30
  remaining activity at 10 µM: 53.2 ± 2.6%

## O=C1Nc2ccc(Br)cc2/C1=N/NC(=O)c1ccc(F)cc1 [IS4]
[2]
  IC50: 32.85 ± 0.134 µM
  remaining activity at 10 µM: 70.1 ± 1.93%
[3]
  IC50: 7.28 ± 1.72 µM
  SI (selectivity index): 4.51
  remaining activity at 10 µM: 42.5 ± 8.93%

## O=C1Nc2ccc(F)cc2/C1=N/NC(=O)c1ccc(F)cc1 [IS12]
[2]
  IC50: 4.29 ± 0.552 µM
  remaining activity at 10 µM: 36.6 ± 1.6%
[3]
  IC50: 7.1 ± 0.956 µM
  SI (selectivity index): 0.60
  remaining activity at 10 µM: 44.3 ± 4.48%
